Data: US20080081039A1, “Inorganic Selenium For Treatment Of Cancer” (priority 2004, published 2008)
Read-outs that look alike come from different tables or passages of the source.

Experiments:
PC-3 cells [1] = details: 5 weeks, vs controls
Protocol: Animal experimentation involved the use of BALB/c nude mice. On day one of the experiment 6 week old BALB/c nude mice were anaesthetized with an intraperitoneal injection of ketamine 100 mg/kg and xylazine 20 mg/kg. Under magnification 1×10^6 PC-3 cells with viability greater than 95%, were injected into the dorsolateral prostate, essentially as described in Corcoran, N. M., Najdovska, M., and Costello, A. J. (2004), J. Urol., 171:907-910.
On day 3 of the experiment all mice were switched to the D19101 minimal selenium diet with an assayed selenium content of 0.07 ppm (Research Diets Inc., New Brunswick, N.J., USA). […] After 5 weeks of supplementation mice were culled and tumor-containing prostate glands were then weighed and measured with a Vernier calliper. The retroperitonium was then explored under magnification cephadally to the level of the renal veins and lymph nodes measuring greater than 0.5 mm identified.
The degree of apoptosis in tissue samples was determined using an in situ TUNEL Cell Death Detection Kit (Roche Applied Science) according to the manufacture's instructions. The number of brown staining cells at high power (×400) were counted in 10 randomly chosen fields in areas where necrosis was absent on H&E staining of adjacent sections.
The rate of tumor cell proliferation was determined by in vivo BrdU incorporation. Two hours prior to culling, the mice were injected with 50 mg/kg BrdU (Sigma) intraperitoneally. 5 μm sections were cut, fixed in absolute methanol at 4° C. for 10 minutes. Sections were rehydrated in PBS and incubated in 2 N HCl for 1 hour at 37° C. to denature the DNA. The acid was neutralized by immersing the slides in 0.1 M borate buffer (pH 8.5). Following 3×PBS washes the samples were incubated with a monoclonal antibody to bromodeoxyuridine (BrdU) (Roche Applied Science) at a concentration of 5 μg/mL diluted in 0.1% BSA in PBS for 1 hour at room temperature, then overnight at 4° C. Samples were washed 3× times in PBS and incubated for 1 hour with a biotinylated link immunoglobulin mixture (DAKO Corporation). […] 10 fields at high power (×400) were chosen at random and the number of brown staining cells counted.

mTOR = details: 0.5 mM, various time periods
Text: (§1) The following antibodies were obtained from Cell Signaling Technology (Beverly, Mass., USA) unless otherwise stated: anti-p27^KIP1 (bd Pharmingen), anti-p21^CIP1 , ANTI-CYCLIN d1, ANTI-CYCLIN d3, ANTI-CDK4, ANTI-CDK6, ANTI-PHOSPHO rb (Ser807/811), anti-RB, anti-phospho Akt (Ser473), anti-phospho Akt (Thre308), anti-Akt, anti-phospho PDK1 (Ser241), anti-phospho PDK1 (Tyr373/376), anti-phospho GSK-3β, anti-phospho mTOR (Ser2448), anti-mTOR, anti-βIII tubulin (Promega).
(§2) To determine the effect of selenate on the phosphorylation of proteins involved in the PI3K/Akt signaling cascade, 5×10^5 PC-3 cells were allowed to attach for 10 hours. […] Cells were lysed in ELB (250 mM NaCl, 50 mM HEPES pH 7.0, 5 mM EDTA, 0.5 mM DTT, 0.2% TX100, 20 mM sodium fluoride, 2 mM sodium pervanadate, Complete Protease Inhibitor Cocktail (Roche)). Lysates were centrifuged for 15 minutes at 4° C. Protein concentration was determined using the BCA system (Sigma) and equal amounts of protein were loaded into each lane of a SDS-polyacrylamide gel. The proteins were transferred onto PVDF (Millipore) membranes and detected with anti-mouse or anti-rabbit secondary antibodies couples to horseradish peroxidase (HRP) and chemiluminescence using the SuperSignal West Dura (Pierce). Membranes were stripped using the Restore Western Blot Stripping Buffer (Pierce).

[2] = system: retinoblastoma protein (Rb ser807/811); details: 0.5 mM, time-dependent
Text: as §1, §2

GSK-3β = details: 0.5 mM, various time periods
Text: as §1, §2

PDK1 = details: 0.5 mM, out to 6 hours
Text: as §1, §2

[3] = system: androgen sensitive LNCaP cells; details: for androgen sensitive NS LNCaP cell proliferation: 5 μM, 9 days
Protocol: Cells were harvested at 72 hours following addition of the compounds and cell counts of viable cells as assessed by Trypan Blue staining were determined.
Cells were harvested at the indicated periods following addition of the compounds and cell counts of viable cells as assessed by Trypan Blue staining were determined.
(§3) The parental androgen-sensitive LNCaP cell line was obtained from the American Type Culture Collection (Manassas, Va., USA) and routinely cultured in […] (Invitrogen) supplemented with 10% foetal calf serum and 1% antibiotic/antimycotic mixture (Invitrogen). Cells were maintained at 37° C. in 5% CO2. To select androgen independent LNCaP cells LNCaPs were cultured in […] (Invitrogen) in 5% Charcoal stripped serum (CSS) (Invitrogen) which has removed all detectable traces of testosterone, for 6-8 weeks and obtained LNCaP cell lines which were now able to freely proliferate in the absence of testosterone. These cells are referred to as CSS LNCaPs.
(§4) Between 5×10^4 (FIGS. 1-2) and 1×10^5 LNCaP, CSS LNCaP or Q293 cells were allowed to attach overnight. […] Supernatants and cells were then harvested, combined and viable cells assessed by Trypan Blue exclusion assay. Experiments were performed in triplicate.

Akt = experiment: Immunoblot of Akt phosphorylation in serum starved PC-3 cells; type: cell-based, human; details: 0.5 mM
Text: as §1, §2

PC-3 cells [4] = details: 24-72 hours
Protocol: Analysis of PC-3 growth curves were achieved by allowing 2×10^5 PC-3 cells to attach overnight. […] Supernatants and cells were then harvested, combined and viable cells assessed by Trypan Blue exclusion assay. Experiments were performed in triplicate.

[5] = system: androgen independent CSS LNCaP cells
Protocol: 5×10^4 human prostate cancer androgen independent CSS LNCaP cells were seeded in a 6-well dish and 8 hours later were treated with either 50 μM selenate or not (control).
as §3, §4

[6] = 50 μM, 72 hours, presence or absence of androgen

O=[Se](=O)(O)O [sodium selenate]
number of retroperitoneal lymph nodes (PC-3 cells [1]; 5 ppm in drinking water, lymph nodes greater than 0.5 mm): significantly decreased
BrdU incorporation in prostate tumors (PC-3 cells [1]; 5 ppm in drinking water): significantly impaired
apoptosis (Tunel assay) in prostate tumors (PC-3 cells [1]; 5 ppm in drinking water): not significantly different
tumor volume difference (PC-3 cells [1]; 5 ppm in drinking water): just failed to reach significance
primary tumor growth assessed by the prostate weight index (PC-3 cells [1]; 5 ppm selenium as sodium selenate in drinking water): significantly inhibit
mTOR phosphorylation status (mTOR): induced a decline
phosphorylation of Rb (ser807/811) [2]: marked decline
GAK-3β phosphorylation status (GSK-3β): induced a decline
phosphorylation status of PDK1 (ser241, tyr373/376) (PDK1): no effect
androgen sensitive NS LNCaP cell proliferation ([3]; absence of androgen (charcoal stripped serum)): synergizes with androgen ablation to markedly reduce
androgen sensitive NS LNCaP cell proliferation ([3]; presence of androgen (normal serum)): markedly reduces
parental LNCaP cell proliferation [3, 6]: synergizes with androgen ablation to reduce
total cellular Akt levels (pan Akt) (Akt): essentially unchanged
Akt activation after the transient boost (Akt; later exposure times): marked and prolonged deactivation
Akt phosphorylation at Ser473 (Akt; various time points, FIG. 4D): profoundly inhibited
phosphorylation of Akt at Ser473 and Thr308, early (Akt; within 10 minutes of exposure): transient boost
PC-3 cell number (PC-3 cells [4]; doses of 0.01 to 0.1 mM): rate of increase in cell number was impeded
PC-3 cell number (PC-3 cells [4]; doses of 0.25 and 0.5 mM): all increases in cell number were blocked
CSS LNCaP cell proliferation ([5]; 5 μM, 9 days, absence of androgen (charcoal stripped serum)): synergizes with androgen ablation to markedly reduce
androgen independent CSS LNCaP cell proliferation ([5]; 5 μM, 9 days, presence of testosterone (normal serum)): markedly reduces
sensitivity of androgen independent cells versus parental LNCaP cells ([5]; 50 μM, 72 hours): even more sensitive
CSS LNCaP cell proliferation [5, 6]: synergizes with androgen ablation to reduce
